Measured values from patent publication US20160216259A1, “ISOTHERMAL TITRATION CALORIMETRY METHODS FOR EVALUATION OF THERMODYNAMIC BINDING PROPERTIES” (The Penn State Research Foundation, priority 2015, published 2016).
“And” between values parts separate entries of the source, which are not always exact repeats. Equal entries are not always repeated. Where two headings read alike, the source gives them in different places. Marks after values point to notes of the source that are not given here.

Columns and labels:
[1] = for ln K: Tricine pH 8.5, 25° C.
Description: The titrations were performed on a NanoITC (TA Instruments, New Castle, Del.) with gold cells with a cell volume of 1 mL. ITC experiments were carried out at 25° C. and the stirring speed was 250 rpm. For the single independent binding experiment, ligand of 20 mM in 100 μL syringe and for the competitive binding site and two independent binding sites model, ligand of 10 mM in 250 μL syringe were used. The injection rate was varied 1.7-10 μL/min for the continuous injection mode under setting tab in ITCRun software. […] The first data point for the incremental injection mode and data for the initial 10 μL of injection for the continuous injection mode is excluded for data fitting with binding models due to reduced amount of the heat flow.
Binding of Ba^2+ and EDTA were performed and analyzed with the single independent binding site model in order to obtain the confidence intervals depending on the number of injections.
The number of injections for the incremental injection experiment was 36 with an injection volume of 2.5 μL. An injection rate of 1.7 μL/min was utilized in the continuous injection experiment. The fit for the continuous injection method was done after 0.1 mM of ligand had been injected.
The experimental time for incremental injection mode experiment was ˜6.5 h (36 injections), while the continuous injection experiment completed within ˜1 h.

[2] = Tricine pH 8.5, 25° C.; for ln K1 / ln K2: EDTA/DPTA mixture, 99% CI in parentheses; for ln K: real-time evaluation from data at inflection points, continuous 7.2 μL/min
Description: The pH of these solutions was adjusted to 8.5 with 1 M NaOH solution. For the single independent binding site and two independent binding sites experiments, Tricine (20 mM) was used as a buffer solution. For the competitive binding site experiment, HEPES (20 mM) was used as a buffer solution.
The titrations were performed on a NanoITC (TA Instruments, New Castle, Del.) with gold cells with a cell volume of 1 mL. ITC experiments were carried out at 25° C. and the stirring speed was 250 rpm. For the single independent binding experiment, ligand of 20 mM in 100 μL syringe and for the competitive binding site and two independent binding sites model, ligand of 10 mM in 250 μL syringe were used. The injection rate was varied 1.7-10 μL/min for the continuous injection mode under setting tab in ITCRun software. During the equilibration, mass transfer of ligand at the tip of the injection syringe reduces the integrated heat of the first injection. The first data point for the incremental injection mode and data for the initial 10 μL of injection for the continuous injection mode is excluded for data fitting with binding models due to reduced amount of the heat flow.
By changing the concentration of EDTA and DPTA in the mixture, the various binding stoichiometry of the receptor, n and m, were simulated. […] The number of injections for the incremental injection mode experiment is 40 with an injection volume of 6 μL. Injection rate for the continuous injection mode is 7.2 μL/min.
The fit for the continuous injection method was done after 0.05 mM of ligand was injected. […] The positive peaks of the binding isotherms in the raw data (top) represent the exothermic heat of binding.

[3] = 1 mM EDTA + 4 mM BaCl2, HEPES pH 8.5, 25° C.
Description: The pH of these solutions was adjusted to 8.5 with 1 M NaOH solution. […] For the competitive binding site experiment, HEPES (20 mM) was used as a buffer solution.
Injection rate for the continuous injection mode is 10 μL/min.
The fit for the continuous injection method was done after 0.1 mM of ligand was injected. […] The positive peaks of the binding isotherms in the raw data (top) represent the exothermic heat of binding.

avidin [4] = biological target: T1, avidin (Gallus gallus, UniProt P02701); assay: Continuous injection ITC, single independent binding of lipoic acid to avidin; settings: 1 mM lipoic acid, continuous 0.1 mL/h into 25 μM avidin, 25° C., pH 6.6
T1 construct: purchased Sigma-Aldrich
Description: (§1) The molecular weight of avidin (12.8 units per mg protein) was used as 66000 g/mol. […] […] HEPES (1 mM) was used as the buffer solution.
(§2) The continuous titrations were performed on a VP-ITC (Malvern Instruments, Westborough, Mass.) with a cell volume of 1.4 mL. The incremental titrations were performed on a NanoITC (TA Instruments, Lindon, Utah) with a cell volume of 1 mL. ITC experiments were carried out at 25° C. and the stirring speed was 270 rpm and 250 rpm for the continuous titration and incremental titration, respectively. For manipulating injection rate, a PHD 2000 syringe pump (Harvard Apparatus, Holliston, Mass.) was connected to the injection syringe of the VP-ITC.
Injection rate for the continuous injection mode was 0.1 mL/h. The fit for the continuous injection method was done after 12 μM of ligand was injected. […] Injection rate for the continuous injection mode is 0.1 mL/h. The fit for the continuous injection method was done after […] of ligand was injected.

avidin [5] = biological target: T1, avidin; settings: reported; pH 6.8; cited from earlier work
avidin [6] = biological target: T1, avidin; assay: Continuous injection ITC, binding of desthiobiotin to avidin, single independent binding site model; settings: 0.5 mM desthiobiotin, continuous 25 μL/h into 12.5 μM avidin, 25° C., pH 7.2
Description: as §1, §2

avidin [7] = biological target: T1, avidin; assay: Continuous injection ITC, competitive binding of desthiobiotin to avidin mixed with lipoic acid; settings: pH 6.6
Description: as §1, §2
[…] The fit for the continuous injection method was done after 12 μM of ligand was injected. […] […] The fit for the continuous injection method was done after […] of ligand was injected.

[8] = continuous injection 7.2 μL/min
[9] = incremental, 40 injections of 6 μL
[10] = apparent, 12.5 μM avidin mixed with 0.75 mM lipoic acid, 25° C.

T1 sequence (P02701 25-152): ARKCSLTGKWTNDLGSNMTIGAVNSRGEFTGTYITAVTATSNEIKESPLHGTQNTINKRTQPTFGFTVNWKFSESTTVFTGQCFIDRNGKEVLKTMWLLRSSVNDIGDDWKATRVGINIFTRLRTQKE

For `[Ba+2].[Cl-].[Cl-]` [BaCl2, barium chloride], the K2 ([1]; Ba^2+ and EDTA, obtained independently by incremental injection, input for the competitive model, listed as Ba^2+) was 1.36e+06 M⁻¹, the “ln K” value ([1]; continuous injection 1.7 μL/min, 99% confidence interval in parentheses) was 14.15 (14.13, 14.16) and 14.11 (14.09, 14.03) and 13.73 (13.71, 13.75) and the “ln K” value ([1]; incremental injection, 9 injections, 99% confidence interval in parentheses) was 14.26 (13.5, 16.7) and 14.14 (13.0, 16.5) and 13.99 (13.4, 14.6). For the same compound, the “ln K” value ([1]; incremental injection, 18 injections, 99% confidence interval in parentheses) was 14.07 (13.6, 14.6) and 14.05 (13.8, 14.5) and 13.88 (13.3, 14.8), the “ln K” value ([1]; incremental injection, 36 injections, 99% confidence interval in parentheses) was 14.07 (13.8, 14.4) and 14.13 (13.9, 14.4) and 14.02 (13.8, 14.3) and the “ln K” value ([1]; real-time evaluation from data at inflection point, continuous injection 1.7 μL/min) was 14.22.
In the case of `O.O.O.O.O=[N+]([O-])[O-].O=[N+]([O-])[O-].[Ca+2]` [Ca(NO3)2, Calcium nitrate tetrahydrate], the “ln K1” value [2, 8] is reported as 18.11 (18.07, 18.15), the “ln K2” value [2, 8] is reported as 11.27 (11.25, 11.30) and the “ln K1” value [2, 9] is reported as 19.50 (18.98, 20.33). The “ln K2” value [2, 9] was 11.42 (11.14, 11.69), the “ln K” value ([2]; association of Ca^2+ and DPTA) was 12.24^g and the “ln K” value ([2]; association of Ca^2+ and EDTA) was 18.98^f. The “ln K” value ([3]; continuous injection 10 μL/min, 99% CI in parentheses) was 20.535 (20.52, 20.55), the “ln K” value ([3]; incremental, 20 injections of 10 μL, 99% CI in parentheses) was 20.47 (20.3, 20.6) and the “ln K” value ([3]; real-time evaluation from data at inflection point, continuous injection 10 μL/min) was 20.64.
For `O=C(O)CCCCC1CCSS1` (stereo not drawn) [Lipoic acid, α-Lipoic acid], the ΔH1 (avidin [4]) is given as -9.95 kcal/mol, the Kd (avidin [4]; read-out: Kd1) is given as 520 nM and the Kd (avidin [5]) is given as 700 nM.
With `C[C@@H]1NC(=O)N[C@@H]1CCCCCC(=O)O` [desthiobiotin, d-desthiobiotin] the ΔH (avidin [6]) was -17.55 kcal/mol, the m (avidin [7]; 0.5 mM desthiobiotin, 25 μL/h into 12.5 μM avidin mixed with 0.75 mM lipoic acid, 25° C.) was 0.294 and the “Kd,app” value (avidin [7]; [10]) was 1.04 nM. For the same compound, the ΔHapp (avidin [7]; [10]) was -9.74 kcal/mol and the ΔH (avidin [7]; evaluated by competitive binding method from lipoic acid and apparent parameters) was -19.7 kcal/mol.
